Some test systems named below: HL-60; HOP-62; HOP-92; K562; KM-20L2; M19-MEL; Malme-3M; NCI-H23; NCI-H460; NCI-H522; OVCAR-8; RPMI-8226; SF-268; SF-295; SK-MEL-28; SK-OV-3; TK-10; UACC-62; PC-3; DMS-273.
Common to all, as to assay: growth of human tumour cells (NCI), 48 h

SMILES strings stand for the structures.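 96-well plates; 48 h exposure; 5 concentrations. Endpoints by linear interpolation between flanking doses. Not reached: highest tested concentration assigned. Here, GI50 denotes the concentration required for 50% inhibition of growth.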 Calls of active or inactive are those of the source. Cut-off read from the data, not from the text of the source: active = GI50 up to about 1.1 µM and inactive = higher. Some results are limits rather than exact numbers.

Take `CC1=NN2C(c3ccc(C)cc3)=CSC2=NC(C)(C)C1`: the GI50 in the assay on HL-60 was 76.2 µM (inactive); in the assay on HOP-62, > 100 µM (inactive); in the assay on HOP-92, > 100 µM (inactive); in the assay with K562, 61.5 µM (inactive); in the assay on KM-20L2, > 100 µM (inactive); in the assay with M19-MEL it was > 100 µM (inactive). Moreover, the GI50 with Malme-3M, with NCI-H23, in the assay on NCI-H460, in the assay on NCI-H522, in the assay on OVCAR-8 and in the assay with RPMI-8226 was > 100 µM (inactive) in each case. Besides, the GI50 in the assay with SF-268, in the assay with SF-295, in the assay on SK-MEL-28, in the assay on SK-OV-3, with TK-10 and in the assay on UACC-62 was > 100 µM (inactive) each time.
In the case of `CC(=O)NNc1nc(C)c(C(=O)NNC(=O)C(=O)Nc2ccc(Cl)c([N+](=O)[O-])c2)s1`, the GI50 with HL-60 was 39 µM (inactive); in the assay on HOP-62 it was > 100 µM (inactive); in the assay with HOP-92 it was 43.3 µM (inactive); in the assay on K562, 26.2 µM (inactive); in the assay with KM-20L2, > 100 µM (inactive); in the assay on M19-MEL, 67.8 µM (inactive). Moreover, the GI50 with Malme-3M is 71.4 µM (inactive); in the assay with NCI-H23 it was 37.7 µM (inactive); with NCI-H460 it was > 100 µM (inactive); in the assay on NCI-H522 it was 26.2 µM (inactive); with OVCAR-8 it was 54.8 µM (inactive); with RPMI-8226 it was 43.7 µM (inactive). The GI50 in the assay on SF-268 was 35.8 µM (inactive); with SF-295, 74.8 µM (inactive); in the assay on SK-MEL-28, > 100 µM (inactive); with SK-OV-3, > 100 µM (inactive); with TK-10, > 100 µM (inactive); in the assay on UACC-62 it was 58.9 µM (inactive).
`COc1ccc2nc(-c3ccccc3)cc(OCC(=O)O)c2c1`: the GI50 in the assay on HL-60, in the assay on HOP-62, with HOP-92, in the assay on K562, in the assay with Malme-3M and in the assay with NCI-H23 was > 100 µM (inactive) in each case. Besides, the GI50 in the assay with NCI-H460, in the assay with NCI-H522, in the assay on OVCAR-8, in the assay on PC-3, in the assay with RPMI-8226 and with SF-268 was > 100 µM (inactive) in each case. Also, the GI50 with SF-295, in the assay with SK-MEL-28, in the assay with SK-OV-3, in the assay with TK-10 and with UACC-62 was > 100 µM (inactive) each time.
`CCOC(=O)c1c[nH]c2cc3c(cc2c1=O)CCS3`: the GI50 was 91 µM (inactive) with HL-60; > 100 µM (inactive) in the assay with HOP-62; > 100 µM (inactive) in the assay on HOP-92; > 100 µM (inactive) in the assay on K562; > 100 µM (inactive) in the assay on Malme-3M; > 100 µM (inactive) in the assay on NCI-H23. In addition, the GI50 in the assay with NCI-H460, with NCI-H522, with OVCAR-8, in the assay with PC-3, in the assay with RPMI-8226 and in the assay on SF-268 was > 100 µM (inactive) in each case. Besides, the GI50 in the assay on SF-295, with SK-MEL-28, in the assay on SK-OV-3, in the assay with TK-10 and with UACC-62 was > 100 µM (inactive) each time.
As for `Nc1nc(N)c(-c2ccccc2)c(C(=O)Nc2nccs2)n1`, the GI50 in the assay with HL-60, in the assay with HOP-62, in the assay with HOP-92, in the assay on K562, in the assay with KM-20L2 and with M19-MEL was > 100 µM (inactive) each time. The GI50 in the assay with Malme-3M, with NCI-H23, in the assay with NCI-H460, with OVCAR-8, in the assay with SF-268 and with SF-295 was > 100 µM (inactive) in each case. Besides, the GI50 in the assay with SK-MEL-28, in the assay with SK-OV-3, in the assay with TK-10 and with UACC-62 was > 100 µM (inactive) throughout.
On to `O=C(NN1C(=O)CS(=O)(=O)C1c1cccc(F)c1)c1ccncc1` (stereo not drawn), for which the GI50 with DMS-273 is > 100 µM (inactive); with HL-60, > 100 µM (inactive); in the assay on HOP-62 it was > 100 µM (inactive); in the assay on HOP-92, > 100 µM (inactive); in the assay with Malme-3M, > 100 µM (inactive); with NCI-H23, > 10 µM (inactive). For the same molecule, the GI50 in the assay on NCI-H460, in the assay on NCI-H522, with RPMI-8226, in the assay with SF-268, with SF-295 and in the assay on SK-MEL-28 was > 100 µM (inactive) in each case. The GI50 in the assay on SK-OV-3 and in the assay with TK-10 was > 100 µM (inactive) each time.
In the case of `CCOC(=O)c1c(C)n(Cc2ccccc2)c(=O)c2ccccc2c(=O)c2c(=O)ccc(=O)c1=2`, the GI50 in the assay with HL-60 was > 100 µM (inactive); in the assay with HOP-62, > 100 µM (inactive); with HOP-92, 14.9 µM (inactive); with K562, 43.3 µM (inactive); in the assay with Malme-3M it was 19.9 µM (inactive); in the assay on NCI-H23, 62.8 µM (inactive). The GI50 is > 100 µM (inactive) with NCI-H460; 23.9 µM (inactive) in the assay with NCI-H522; > 100 µM (inactive) in the assay on OVCAR-8; 39.7 µM (inactive) in the assay with PC-3; 31.2 µM (inactive) with RPMI-8226; 57.7 µM (inactive) in the assay on SF-268. Further, the GI50 with SF-295 is > 100 µM (inactive); in the assay with SK-MEL-28 it was 55.7 µM (inactive); with SK-OV-3 it was > 100 µM (inactive); in the assay on TK-10, 29.1 µM (inactive); in the assay with UACC-62, > 100 µM (inactive).
On to `COc1cc(C2c3cc4c(cc3C(O)C3CCC(=O)N23)OCO4)cc(OC)c1OC` (stereo not drawn), for which the GI50 is 17.1 µM (inactive) in the assay with HL-60; 39.2 µM (inactive) in the assay with HOP-62; 33 µM (inactive) in the assay with HOP-92; 26.5 µM (inactive) with K562; > 100 µM (inactive) with Malme-3M; 53 µM (inactive) in the assay on NCI-H23. The GI50 is 39.4 µM (inactive) in the assay with NCI-H460; 16.9 µM (inactive) with NCI-H522; 37.2 µM (inactive) in the assay on OVCAR-8; 54.3 µM (inactive) with PC-3; 27.1 µM (inactive) in the assay on RPMI-8226; 49.9 µM (inactive) in the assay on SF-268. In addition, the GI50 with SF-295 is 6.68 µM (inactive); with SK-MEL-28, 16.8 µM (inactive); with SK-OV-3, 80.2 µM (inactive); in the assay with TK-10, 69.2 µM (inactive); with UACC-62, 40.8 µM (inactive).
On to `Cc1ccc(S(=O)(=O)N/N=C(\C(=O)Nc2cccc([N+](=O)[O-])c2)c2nc3ccc([N+](=O)[O-])cc3nc2O)cc1`, for which the GI50 was 81.8 µM (inactive) in the assay on HOP-62; > 100 µM (inactive) in the assay on HOP-92; 7.38 µM (inactive) in the assay with K562; 43.7 µM (inactive) in the assay with M19-MEL; 77.3 µM (inactive) in the assay on Malme-3M; 72.4 µM (inactive) with NCI-H23. The GI50 in the assay on NCI-H460 is 33.5 µM (inactive); in the assay with NCI-H522, 5.66 µM (inactive); in the assay on OVCAR-8 it was 54.2 µM (inactive); in the assay on RPMI-8226 it was 54.7 µM (inactive); in the assay on SF-268, 48.5 µM (inactive); in the assay on SF-295, 29 µM (inactive). Also, the GI50 in the assay with SK-MEL-28 is > 100 µM (inactive); with SK-OV-3, > 100 µM (inactive); in the assay with UACC-62 it was 25.4 µM (inactive).
`CCC(=O)OC[n+]1ccc2c(C)c3[nH]c4ccc(OC)cc4c3c(C)c2c1`: the GI50 in the assay with HL-60 is 1.66 µM (inactive); in the assay with HOP-92 it was 0.0556 µM (active); in the assay with K562, 0.132 µM (active); with KM-20L2 it was 0.117 µM (active); in the assay with M19-MEL, 0.266 µM (active); in the assay with Malme-3M it was 0.627 µM (active). Also, the GI50 in the assay on NCI-H23 was 0.22 µM (active); in the assay with NCI-H460, 0.0199 µM (active); in the assay with OVCAR-8, 0.0755 µM (active); in the assay on RPMI-8226 it was 0.182 µM (active); with SF-268, 0.24 µM (active); in the assay on SF-295, 0.0738 µM (active). The GI50 with SK-MEL-28 was 0.759 µM (active); with TK-10, 0.94 µM (active).
Turning to `CC1=CCC[C@@]2(C)C(CC[C@@H]2C(C)/C=C/C(C)C)c2ccc(cc2C(=O)O)C[C@@H](O)CC1` (stereo partly drawn), the GI50 is 14.4 µM (inactive) in the assay with DMS-273; 9.79 µM (inactive) in the assay on HL-60; 20 µM (inactive) in the assay on HOP-62; 14.4 µM (inactive) with HOP-92; 9.89 µM (inactive) in the assay on K562; 12.7 µM (inactive) in the assay on M19-MEL. The GI50 in the assay on Malme-3M was 15.7 µM (inactive); in the assay with NCI-H23 it was > 10 µM (inactive); in the assay with NCI-H460 it was 7.01 µM (inactive); with NCI-H522 it was 13.5 µM (inactive); in the assay with OVCAR-8, 15.2 µM (inactive); in the assay with RPMI-8226 it was 3.63 µM (inactive). Moreover, the GI50 with SF-268 is 14.2 µM (inactive); with SF-295, 9.27 µM (inactive); in the assay on SK-MEL-28, 14.7 µM (inactive); with SK-OV-3, 18.1 µM (inactive); in the assay on TK-10, 12.5 µM (inactive); in the assay with UACC-62, 10.9 µM (inactive).
In the case of `COC(=O)C1N=CSCC1(C)O` (stereo not drawn), the GI50 in the assay with HL-60, in the assay on HOP-62, with HOP-92, in the assay with K562, with KM-20L2 and in the assay with M19-MEL was > 100 µM (inactive) each time. The GI50 with Malme-3M, with NCI-H23, in the assay on NCI-H460, in the assay with OVCAR-8, with RPMI-8226 and in the assay with SF-268 was > 100 µM (inactive) throughout. Besides, the GI50 with SF-295, in the assay with SK-MEL-28, in the assay with SK-OV-3, in the assay on TK-10 and in the assay on UACC-62 was > 100 µM (inactive) in each case.

These data come from ChEMBL document CHEMBL1201862, “PubChem BioAssay data set” (2004).
